Results as given in PubChem BioAssay (NCI).
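Compound exposure: 48 hours, 5 concentrations, 96-well plates. Abbreviation: GI50, concentration required for 50% inhibition of growth. TGI: concentration producing complete growth inhibition.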

Columns and labels:
Assay in all cases: NCI tumour cell line growth inhibition, 48 h
[1] = tested on: NCI/ADR-RES ovarian
[2] = tested on: HT29 colon
[3] = tested on: NCI-H522 lung
[4] = tested on: OVCAR-5 ovarian
[5] = tested on: MDA-MB-435
[6] = tested on: SN12C renal
[7] = tested on: TK-10 renal
[8] = tested on: SF-295 CNS
[9] = tested on: K-562 leukemia
[10] = tested on: HS 578T breast
[11] = tested on: SK-MEL-2 melanoma
[12] = tested on: A498 renal
[13] = tested on: ACHN renal
[14] = tested on: 786-0 renal
[15] = tested on: UACC-257 melanoma
[16] = tested on: OVCAR-8 ovarian
[17] = tested on: MALME-3M melanoma
[18] = tested on: SNB-75 CNS
[19] = tested on: SK-MEL-5 melanoma
[20] = tested on: CAKI-1 renal
[21] = tested on: SF-539 CNS
[22] = tested on: UACC-62 melanoma
[23] = tested on: IGROV1 ovarian
[24] = tested on: SNB-19 CNS
[25] = tested on: SF-268 CNS
[26] = tested on: HCC-2998 colon
[27] = tested on: EKVX NSCLC
[28] = tested on: HOP-92 NSCLC
[29] = tested on: A549 NSCLC
[30] = tested on: DU-145 prostate
[31] = tested on: MOLT-4 leukemia
[32] = tested on: BT-549 breast
[33] = tested on: HOP-62 NSCLC
[34] = tested on: SR leukemia
[35] = tested on: OVCAR-3 ovarian
[36] = tested on: MCF7 breast
[37] = tested on: COLO 205 colon
[38] = tested on: UO-31 renal
[39] = tested on: OVCAR-4 ovarian
[40] = tested on: KM12 colon
[41] = tested on: U251 CNS
[42] = tested on: RXF 393 renal
[43] = tested on: MDA-MB-231 breast
[44] = tested on: CCRF-CEM leukemia
[45] = tested on: NCI-H460 lung
[46] = tested on: LOX IMVI melanoma
[47] = tested on: HCT-116 colon
[48] = tested on: NCI-H23 lung
[49] = tested on: HCT-15 colon
[50] = tested on: PC-3 prostate
[51] = tested on: SK-MEL-28 melanoma
[52] = tested on: HL-60(TB) leukemia
[53] = tested on: SW-620 colon
[54] = tested on: SK-OV-3 ovarian
[55] = tested on: NCI-H226 lung
[56] = tested on: T-47D breast

CC1CCN(C(=O)OCc2nc3nc(Cl)nc(N4CCOCC4)c3[nH]2)CC1
GI50 [1]: 2210 nM
TGI [1]: 10400 nM
GI50 [2]: 831 nM
TGI [2]: 6380 nM
GI50 [3]: 1080 nM
TGI [3]: 3130 nM
GI50 [4]: 1310 nM
TGI [4]: 2730 nM
GI50 [5]: 835 nM
TGI [5]: 2240 nM
GI50 [6]: 865 nM
TGI [6]: 2160 nM
GI50 [7]: 1820 nM
TGI [7]: 3440 nM
GI50 [8]: 3760 nM
TGI [8]: 15300 nM
GI50 [9]: 434 nM
TGI [9]: 13600 nM
GI50 [10]: 1760 nM
TGI [10]: 4850 nM
GI50 [11]: 1860 nM
TGI [11]: 3770 nM
GI50 [12]: 1650 nM
TGI [12]: 4050 nM
GI50 [13]: 583 nM
TGI [13]: 1880 nM
GI50 [14]: 1290 nM
TGI [14]: 2690 nM
GI50 [15]: 1730 nM
TGI [15]: 3760 nM
GI50 [16]: 1900 nM
TGI [16]: 9020 nM
GI50 [17]: 1500 nM
TGI [17]: 2860 nM
GI50 [18]: 1060 nM
TGI [18]: 2290 nM
GI50 [19]: 1740 nM
TGI [19]: 3140 nM
GI50 [20]: 720 nM
TGI [20]: 2270 nM
GI50 [21]: 1110 nM
TGI [21]: 2320 nM
GI50 [22]: 1290 nM
TGI [22]: 2550 nM
GI50 [23]: 529 nM
TGI [23]: 1830 nM
GI50 [24]: 1550 nM
TGI [24]: 2900 nM
GI50 [25]: 1420 nM
TGI [25]: 2840 nM
GI50 [26]: 1690 nM
TGI [26]: 3290 nM
GI50 [27]: 1480 nM
TGI [27]: 3300 nM
GI50 [28]: 49.7 nM
TGI [28]: 1060 nM
GI50 [29]: 1940 nM
TGI [29]: 4810 nM
GI50 [30]: 1140 nM
TGI [30]: 2350 nM
GI50 [31]: 704 nM
TGI [31]: 4040 nM
GI50 [32]: 1250 nM
TGI [32]: 3070 nM
GI50 [33]: 1760 nM
TGI [33]: 5000 nM
GI50 [34]: 331 nM
TGI [34]: 3310 nM
GI50 [35]: 438 nM
TGI [35]: 1710 nM
GI50 [36]: 650 nM
TGI [36]: 2380 nM
GI50 [37]: 1750 nM
TGI [37]: 4990 nM
GI50 [38]: 692 nM
TGI [38]: 2050 nM
GI50 [39]: 1350 nM
TGI [39]: 2720 nM
GI50 [40]: 1580 nM
TGI [40]: 3330 nM
GI50 [41]: 1660 nM
TGI [41]: 3430 nM
GI50 [42]: 554 nM
TGI [42]: 2000 nM
GI50 [43]: 1250 nM
TGI [43]: 2700 nM
GI50 [44]: 290 nM
TGI [44]: 964 nM
GI50 [45]: 1380 nM
TGI [45]: 2990 nM
GI50 [46]: 175 nM
TGI [46]: 473 nM
GI50 [47]: 209 nM
TGI [47]: 1160 nM
GI50 [48]: 1580 nM
TGI [48]: 3650 nM
GI50 [49]: 634 nM
TGI [49]: 2220 nM
GI50 [50]: 832 nM
TGI [50]: 2420 nM
GI50 [51]: 1560 nM
TGI [51]: 2940 nM
GI50 [52]: 423 nM
TGI [52]: 3780 nM
GI50 [53]: 551 nM
TGI [53]: 2070 nM
GI50 [54]: 7350 nM
TGI [54]: 21000 nM
GI50 [55]: 1620 nM
TGI [55]: 4230 nM
GI50 [56]: 1760 nM
TGI [56]: 4890 nM
